Data taken from PubChem BioAssay (NCI).
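Tested at 5 concentrations; 48 h exposure; 96-well plates; endpoints linearly interpolated, else capped at highest concentration. GI50 marks 50% less growth. The concentration for full growth arrest is given as TGI.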

Tests used:
Assay in all cases: NCI tumour cell line growth inhibition, 48 h
T-47D breast = tested on: T-47D breast
LOX IMVI melanoma = tested on: LOX IMVI melanoma
SR leukemia = tested on: SR leukemia
CCRF-CEM leukemia = tested on: CCRF-CEM leukemia
HCT-15 colon = tested on: HCT-15 colon
SK-MEL-28 melanoma = tested on: SK-MEL-28 melanoma
CAKI-1 renal = tested on: CAKI-1 renal
A498 renal = tested on: A498 renal
RXF 393 renal = tested on: RXF 393 renal
A549 NSCLC = tested on: A549 NSCLC
TK-10 renal = tested on: TK-10 renal
M14 melanoma = tested on: M14 melanoma
RPMI-8226 leukemia = tested on: RPMI-8226 leukemia
HOP-62 NSCLC = tested on: HOP-62 NSCLC
PC-3 prostate = tested on: PC-3 prostate
K-562 leukemia = tested on: K-562 leukemia
SF-295 CNS = tested on: SF-295 CNS
EKVX NSCLC = tested on: EKVX NSCLC
MDA-MB-231 breast = tested on: MDA-MB-231 breast
MDA-MB-435 = tested on: MDA-MB-435
IGROV1 ovarian = tested on: IGROV1 ovarian
UACC-62 melanoma = tested on: UACC-62 melanoma
MOLT-4 leukemia = tested on: MOLT-4 leukemia
SW-620 colon = tested on: SW-620 colon
OVCAR-5 ovarian = tested on: OVCAR-5 ovarian
SF-539 CNS = tested on: SF-539 CNS
HS 578T breast = tested on: HS 578T breast
MCF7 breast = tested on: MCF7 breast
NCI-H522 lung = tested on: NCI-H522 lung
HT29 colon = tested on: HT29 colon
SK-MEL-5 melanoma = tested on: SK-MEL-5 melanoma
HCT-116 colon = tested on: HCT-116 colon
OVCAR-4 ovarian = tested on: OVCAR-4 ovarian
DU-145 prostate = tested on: DU-145 prostate
SF-268 CNS = tested on: SF-268 CNS
SN12C renal = tested on: SN12C renal
SNB-75 CNS = tested on: SNB-75 CNS
786-0 renal = tested on: 786-0 renal
NCI-H460 lung = tested on: NCI-H460 lung
UO-31 renal = tested on: UO-31 renal
NCI-H23 lung = tested on: NCI-H23 lung
UACC-257 melanoma = tested on: UACC-257 melanoma
ACHN renal = tested on: ACHN renal
KM12 colon = tested on: KM12 colon
OVCAR-8 ovarian = tested on: OVCAR-8 ovarian
MALME-3M melanoma = tested on: MALME-3M melanoma
U251 CNS = tested on: U251 CNS
OVCAR-3 ovarian = tested on: OVCAR-3 ovarian
SK-MEL-2 melanoma = tested on: SK-MEL-2 melanoma
NCI-H226 lung = tested on: NCI-H226 lung
COLO 205 colon = tested on: COLO 205 colon
SK-OV-3 ovarian = tested on: SK-OV-3 ovarian
HOP-92 NSCLC = tested on: HOP-92 NSCLC
SNB-19 CNS = tested on: SNB-19 CNS
HCC-2998 colon = tested on: HCC-2998 colon
HL-60(TB) leukemia = tested on: HL-60(TB) leukemia
NCI/ADR-RES ovarian = tested on: NCI/ADR-RES ovarian

Structure (SMILES): O=[N+]([O-])c1cc(Cl)c(Cl)cc1[N+](=O)[O-]
- TGI (T-47D breast): 6.63 µM
- TGI (LOX IMVI melanoma): 4.74 µM
- TGI (SR leukemia): 4.98 µM
- TGI (CCRF-CEM leukemia): > 100 µM
- TGI (HCT-15 colon): 7.77 µM
- TGI (SK-MEL-28 melanoma): 6.04 µM
- TGI (CAKI-1 renal): 4.28 µM
- TGI (A498 renal): 33 µM
- TGI (RXF 393 renal): 3.48 µM
- TGI (A549 NSCLC): 4.97 µM
- TGI (TK-10 renal): 12.3 µM
- TGI (M14 melanoma): 8.8 µM
- TGI (RPMI-8226 leukemia): 15.2 µM
- TGI (HOP-62 NSCLC): 6.49 µM
- TGI (PC-3 prostate): 3.94 µM
- TGI (K-562 leukemia): 5.81 µM
- TGI (SF-295 CNS): 5.23 µM
- TGI (EKVX NSCLC): 8.81 µM
- TGI (MDA-MB-231 breast): 4.38 µM
- TGI (MDA-MB-435): 12.8 µM
- TGI (IGROV1 ovarian): 3.44 µM
- TGI (UACC-62 melanoma): 4.42 µM
- TGI (MOLT-4 leukemia): 0.797 µM
- TGI (SW-620 colon): 7.73 µM
- TGI (OVCAR-5 ovarian): 5.21 µM
- TGI (SF-539 CNS): 4.68 µM
- TGI (HS 578T breast): 72.3 µM
- TGI (MCF7 breast): 4.85 µM
- TGI (NCI-H522 lung): 3.36 µM
- TGI (HT29 colon): 26.9 µM
- TGI (SK-MEL-5 melanoma): 29.2 µM
- TGI (HCT-116 colon): > 100 µM
- TGI (OVCAR-4 ovarian): 4.63 µM
- TGI (DU-145 prostate): 4.42 µM
- TGI (SF-268 CNS): 3.66 µM
- TGI (SN12C renal): 3.52 µM
- TGI (SNB-75 CNS): 9.32 µM
- TGI (786-0 renal): 6.36 µM
- TGI (NCI-H460 lung): 12.3 µM
- TGI (UO-31 renal): 3.62 µM
- TGI (NCI-H23 lung): 4.83 µM
- TGI (UACC-257 melanoma): 4.1 µM
- TGI (ACHN renal): 6.51 µM
- TGI (KM12 colon): 13 µM
- TGI (OVCAR-8 ovarian): 5.99 µM
- TGI (MALME-3M melanoma): 5.83 µM
- TGI (U251 CNS): 3.82 µM
- TGI (OVCAR-3 ovarian): 3.22 µM
- TGI (SK-MEL-2 melanoma): 4.74 µM
- TGI (NCI-H226 lung): 11 µM
- TGI (COLO 205 colon): 26.5 µM

Structure (SMILES): Nc1nc(N)c(N=Nc2ccccc2)c(-c2ccccc2)n1
- GI50 (T-47D breast): 0.487 µM
- TGI (T-47D breast): 6.91 µM
- GI50 (LOX IMVI melanoma): 11 µM
- TGI (LOX IMVI melanoma): 23.5 µM
- GI50 (SR leukemia): 4.54 µM
- TGI (SR leukemia): 73.3 µM
- GI50 (CCRF-CEM leukemia): 8.14 µM
- TGI (CCRF-CEM leukemia): > 100 µM
- GI50 (HCT-15 colon): 5.95 µM
- TGI (HCT-15 colon): 39.9 µM
- GI50 (SK-MEL-28 melanoma): 11.3 µM
- TGI (SK-MEL-28 melanoma): 28.2 µM
- GI50 (CAKI-1 renal): 3.57 µM
- TGI (CAKI-1 renal): 23.5 µM
- GI50 (A498 renal): 2.07 µM
- TGI (A498 renal): 11.4 µM
- GI50 (RXF 393 renal): 3.42 µM
- TGI (RXF 393 renal): 15.4 µM
- GI50 (A549 NSCLC): 6.85 µM
- TGI (A549 NSCLC): 22.8 µM
- GI50 (SK-OV-3 ovarian): 4.4 µM
- TGI (SK-OV-3 ovarian): 17.5 µM
- GI50 (M14 melanoma): 12 µM
- TGI (M14 melanoma): 34.6 µM
- GI50 (RPMI-8226 leukemia): 7.98 µM
- TGI (RPMI-8226 leukemia): 46 µM
- GI50 (HOP-62 NSCLC): 4.25 µM
- TGI (HOP-62 NSCLC): 19.2 µM
- GI50 (PC-3 prostate): 3.02 µM
- TGI (PC-3 prostate): 20.8 µM
- GI50 (K-562 leukemia): 10.3 µM
- TGI (K-562 leukemia): > 100 µM
- GI50 (SF-295 CNS): 3.18 µM
- TGI (SF-295 CNS): 18.6 µM
- GI50 (EKVX NSCLC): 3.75 µM
- TGI (EKVX NSCLC): 30.8 µM
- GI50 (MDA-MB-231 breast): 5.84 µM
- TGI (MDA-MB-231 breast): 30.5 µM
- GI50 (MDA-MB-435): 11.5 µM
- TGI (MDA-MB-435): 29.5 µM
- GI50 (HOP-92 NSCLC): 1.45 µM
- TGI (HOP-92 NSCLC): 9.95 µM
- GI50 (IGROV1 ovarian): 2.01 µM
- TGI (IGROV1 ovarian): 22.2 µM
- GI50 (UACC-62 melanoma): 4.33 µM
- TGI (UACC-62 melanoma): 20.1 µM
- GI50 (MOLT-4 leukemia): 3.68 µM
- TGI (MOLT-4 leukemia): 68.7 µM
- GI50 (SW-620 colon): 12.8 µM
- TGI (SW-620 colon): 27.2 µM
- GI50 (OVCAR-5 ovarian): 6.47 µM
- TGI (OVCAR-5 ovarian): 23.8 µM
- GI50 (SF-539 CNS): 6.39 µM
- TGI (SF-539 CNS): 21.1 µM
- GI50 (HS 578T breast): 1.66 µM
- TGI (HS 578T breast): 6.88 µM
- GI50 (MCF7 breast): 0.362 µM
- TGI (MCF7 breast): 18.1 µM
- GI50 (SK-MEL-5 melanoma): 3.74 µM
- TGI (SK-MEL-5 melanoma): 20.3 µM
- GI50 (HCT-116 colon): 5.12 µM
- TGI (HCT-116 colon): 18.3 µM
- GI50 (OVCAR-4 ovarian): 4.03 µM
- TGI (OVCAR-4 ovarian): 20.7 µM
- GI50 (SNB-19 CNS): 12.5 µM
- TGI (SNB-19 CNS): 43.3 µM
- GI50 (DU-145 prostate): 9.9 µM
- TGI (DU-145 prostate): 34.1 µM
- GI50 (SF-268 CNS): 5.86 µM
- TGI (SF-268 CNS): 66.8 µM
- GI50 (SNB-75 CNS): 1.41 µM
- TGI (SNB-75 CNS): 7.8 µM
- GI50 (HCC-2998 colon): 14.3 µM
- TGI (HCC-2998 colon): > 100 µM
- GI50 (HL-60(TB) leukemia): 11.1 µM
- TGI (HL-60(TB) leukemia): > 100 µM
- GI50 (786-0 renal): 5.98 µM
- TGI (786-0 renal): 19.4 µM
- GI50 (NCI-H460 lung): 4.16 µM
- TGI (NCI-H460 lung): 17.8 µM
- GI50 (UO-31 renal): 2.54 µM
- TGI (UO-31 renal): 24.7 µM
- GI50 (NCI-H23 lung): 10.4 µM
- TGI (NCI-H23 lung): 31.4 µM
- GI50 (UACC-257 melanoma): 13.7 µM
- TGI (UACC-257 melanoma): 35.9 µM
- GI50 (ACHN renal): 4.49 µM
- TGI (ACHN renal): 19 µM
- GI50 (KM12 colon): 2.89 µM
- TGI (KM12 colon): 14.5 µM
- GI50 (OVCAR-8 ovarian): 11.1 µM
- TGI (OVCAR-8 ovarian): 37.4 µM
- GI50 (NCI/ADR-RES ovarian): 9.53 µM
- TGI (NCI/ADR-RES ovarian): 53.1 µM
- GI50 (MALME-3M melanoma): 4.33 µM
- TGI (MALME-3M melanoma): 24.9 µM
- GI50 (U251 CNS): 8.27 µM
- TGI (U251 CNS): 26.8 µM
- GI50 (OVCAR-3 ovarian): 10.4 µM
- TGI (OVCAR-3 ovarian): 23 µM
- GI50 (NCI-H226 lung): 4.19 µM
- TGI (NCI-H226 lung): 19.4 µM
- GI50 (COLO 205 colon): 9.29 µM
- TGI (COLO 205 colon): 25.8 µM
